This is an account of results in US20240293386A1, “NOVEL COMPOUND AS PROTEIN KINASE INHIBITOR” (LG CHEM, LTD., priority 2021, published 2024).

One assay concerns the target RON (Homo sapiens, UniProt Q04912). Put plainly: Evaluation of inhibitory activity against RON (TR-FRET). The format is biochemical. The settings on record: TR-FRET enzyme assay, RON protein, ULight-labeled Poly GT substrate, ATP. As to the method:
In order to measure the inhibitory activity of each of the compounds of Examples against RON, the IC50 of each of the compounds was measured using Time-resolved fluorescence energy transfer (TR-FRET).
Specifically, the compound was prepared to a concentration of 1 mM in 100% DMSO and was diluted 10 times in a stepwise manner through 3-fold dilution. The compound (2 μL) diluted in a stepwise manner was added to a 96-well-plate containing 48 μL of a 1× kinase reaction buffer (50 mM HEPES (pH 7.4), 0.01% Tween-20, 5 mM DTT, 0.5 mM Na3VO4, 2 mM EGTA, 10 mM MgCl2).
The RON protein was diluted to a concentration of 49.3 nM in a RON storage buffer (50 mM Tris-HCl (pH 7.5), 150 mM NaCl, 0.5 mM EDTA, 0.02% Triton X-100), and then diluted again to a concentration of 0.4 nM in a 1× kinase reaction buffer. As a substrate cocktail, a RON-specific substrate mixed solution (40 uM ULight-labeled Poly GT, 100 nM ATP) was prepared at a concentration 2 times the final reaction concentration.
(§1) Thereafter, a 384-well-plate was prepared, and 2.5 μL of each of the diluted compounds of Examples was added to a corresponding well of experimental group wells, and 2.5 μL of a 4% DMSO solution was dispensed into high control wells and low control wells.
(§2) Thereafter, 2.5 μL of 0.4 nM RON was dispensed into each of the high control wells and the experimental group wells, and 2.5 μL of the 1× kinase reaction buffer was added to the low control wells, and all the wells were centrifuged at room temperature for 40 seconds at 1,000 RPM, and then incubated at room temperature for 20-30 minutes. Then, 5 μL of the substrate cocktail (2×) was dispensed into each well, and all the wells were centrifuged at room temperature for 40 seconds at 1,000 RPM, and then incubated at room temperature for 60 minutes. Thereafter, 5 μL of 30 mM EDTA was added to each well to terminate the reaction, and all the wells were then incubated again at room temperature for 5 minutes. Thereafter, 5 μL of a 4× phosphotyrosine antibody (Perkin Elmer) containing europium was added to each well, and all the wells were then incubated at room temperature for 60 minutes. After the incubation, the 384-well-plate was read with the Vison plate reader. In this case, the excitation wavelength was 340 nm, and the emission wavelength was 620 nm and 665 nm. The IC50 value of each compound of Examples was derived using the GraphPd Prism7 program.

The target of another assay is cMET (Homo sapiens, UniProt P08581). Put plainly: Evaluation of inhibitory activity against MET (TR-FRET). The class given is biochemical. The settings on record: TR-FRET enzyme assay, cMET protein, TK peptide substrate, ATP. As for the experimental part:
In addition, in order to measure the enzyme activity inhibition for cMET, the evaluation was performed in the same manner as the enzyme activity inhibition measurement experiment for RON.
Specifically, the compound was prepared to a concentration of 1 mM in 100% DMSO and was diluted 10 times in a stepwise manner through 3-fold dilution. The compound (2 μL) diluted in a stepwise manner was added to a 96-well-plate containing 48 μL of a 1× kinase reaction buffer (50 mM HEPES (pH 7.4), 0.05% BSA, 0.005% Tween-20, 1 mM DTT, 0.5 mM MnCl2, 20 mM MgCl2).
The cMET protein was diluted to a concentration of 263 nM in a cMET storage buffer (50 mM Tris-HCl (pH 7.5), 150 mM NaCl, 0.05% Brij35, 1 mM DTT, 10% Glycerol), and then diluted again to a concentration of 2 nM in a 1× kinase reaction buffer. As a substrate cocktail, a MET-specific substrate mixed solution (5 μM TK peptide, 10 mM ATP) was prepared at a concentration 2 times the final reaction concentration.
as §1
as §2, with “of 2” for “of 0.4”, “nM cMET” for “nM RON”, “of 90” for “of 30”

Sequence of RON (Q04912 25-1400, species assumed): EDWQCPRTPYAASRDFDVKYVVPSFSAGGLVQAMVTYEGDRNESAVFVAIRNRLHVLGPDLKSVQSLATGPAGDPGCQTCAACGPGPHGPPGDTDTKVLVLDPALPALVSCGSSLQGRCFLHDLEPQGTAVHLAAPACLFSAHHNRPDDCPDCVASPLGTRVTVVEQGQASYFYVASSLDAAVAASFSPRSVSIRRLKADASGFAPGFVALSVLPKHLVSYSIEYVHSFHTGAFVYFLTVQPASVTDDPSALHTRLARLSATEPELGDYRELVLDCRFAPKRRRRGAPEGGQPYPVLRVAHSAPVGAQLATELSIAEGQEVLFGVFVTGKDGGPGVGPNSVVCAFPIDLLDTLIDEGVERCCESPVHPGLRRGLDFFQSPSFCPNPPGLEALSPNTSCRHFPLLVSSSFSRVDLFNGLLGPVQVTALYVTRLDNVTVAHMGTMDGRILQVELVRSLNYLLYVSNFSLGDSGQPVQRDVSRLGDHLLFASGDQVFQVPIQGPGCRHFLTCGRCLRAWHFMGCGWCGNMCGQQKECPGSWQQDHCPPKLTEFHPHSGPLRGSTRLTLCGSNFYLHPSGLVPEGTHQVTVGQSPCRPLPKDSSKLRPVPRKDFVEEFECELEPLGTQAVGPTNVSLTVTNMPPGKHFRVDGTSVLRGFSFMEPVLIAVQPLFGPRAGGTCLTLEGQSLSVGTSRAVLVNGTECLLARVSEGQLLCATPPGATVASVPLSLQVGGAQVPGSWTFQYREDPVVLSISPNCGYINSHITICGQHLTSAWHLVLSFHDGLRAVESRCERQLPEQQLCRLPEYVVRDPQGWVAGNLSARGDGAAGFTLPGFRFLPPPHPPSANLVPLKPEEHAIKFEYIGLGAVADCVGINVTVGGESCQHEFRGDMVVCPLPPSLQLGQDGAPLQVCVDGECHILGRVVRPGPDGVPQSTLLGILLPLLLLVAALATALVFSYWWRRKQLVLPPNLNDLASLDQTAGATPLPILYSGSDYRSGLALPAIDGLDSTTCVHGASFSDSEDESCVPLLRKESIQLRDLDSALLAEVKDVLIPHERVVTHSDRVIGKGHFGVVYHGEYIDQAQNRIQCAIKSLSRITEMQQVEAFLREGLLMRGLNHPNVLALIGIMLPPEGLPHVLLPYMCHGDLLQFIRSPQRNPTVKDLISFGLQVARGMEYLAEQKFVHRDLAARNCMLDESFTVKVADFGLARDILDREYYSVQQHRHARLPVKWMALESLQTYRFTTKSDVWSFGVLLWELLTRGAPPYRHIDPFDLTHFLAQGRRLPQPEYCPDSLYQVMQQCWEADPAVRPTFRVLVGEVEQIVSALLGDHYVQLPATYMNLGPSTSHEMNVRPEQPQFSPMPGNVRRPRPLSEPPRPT
Sequence of cMET (P08581 25-1390): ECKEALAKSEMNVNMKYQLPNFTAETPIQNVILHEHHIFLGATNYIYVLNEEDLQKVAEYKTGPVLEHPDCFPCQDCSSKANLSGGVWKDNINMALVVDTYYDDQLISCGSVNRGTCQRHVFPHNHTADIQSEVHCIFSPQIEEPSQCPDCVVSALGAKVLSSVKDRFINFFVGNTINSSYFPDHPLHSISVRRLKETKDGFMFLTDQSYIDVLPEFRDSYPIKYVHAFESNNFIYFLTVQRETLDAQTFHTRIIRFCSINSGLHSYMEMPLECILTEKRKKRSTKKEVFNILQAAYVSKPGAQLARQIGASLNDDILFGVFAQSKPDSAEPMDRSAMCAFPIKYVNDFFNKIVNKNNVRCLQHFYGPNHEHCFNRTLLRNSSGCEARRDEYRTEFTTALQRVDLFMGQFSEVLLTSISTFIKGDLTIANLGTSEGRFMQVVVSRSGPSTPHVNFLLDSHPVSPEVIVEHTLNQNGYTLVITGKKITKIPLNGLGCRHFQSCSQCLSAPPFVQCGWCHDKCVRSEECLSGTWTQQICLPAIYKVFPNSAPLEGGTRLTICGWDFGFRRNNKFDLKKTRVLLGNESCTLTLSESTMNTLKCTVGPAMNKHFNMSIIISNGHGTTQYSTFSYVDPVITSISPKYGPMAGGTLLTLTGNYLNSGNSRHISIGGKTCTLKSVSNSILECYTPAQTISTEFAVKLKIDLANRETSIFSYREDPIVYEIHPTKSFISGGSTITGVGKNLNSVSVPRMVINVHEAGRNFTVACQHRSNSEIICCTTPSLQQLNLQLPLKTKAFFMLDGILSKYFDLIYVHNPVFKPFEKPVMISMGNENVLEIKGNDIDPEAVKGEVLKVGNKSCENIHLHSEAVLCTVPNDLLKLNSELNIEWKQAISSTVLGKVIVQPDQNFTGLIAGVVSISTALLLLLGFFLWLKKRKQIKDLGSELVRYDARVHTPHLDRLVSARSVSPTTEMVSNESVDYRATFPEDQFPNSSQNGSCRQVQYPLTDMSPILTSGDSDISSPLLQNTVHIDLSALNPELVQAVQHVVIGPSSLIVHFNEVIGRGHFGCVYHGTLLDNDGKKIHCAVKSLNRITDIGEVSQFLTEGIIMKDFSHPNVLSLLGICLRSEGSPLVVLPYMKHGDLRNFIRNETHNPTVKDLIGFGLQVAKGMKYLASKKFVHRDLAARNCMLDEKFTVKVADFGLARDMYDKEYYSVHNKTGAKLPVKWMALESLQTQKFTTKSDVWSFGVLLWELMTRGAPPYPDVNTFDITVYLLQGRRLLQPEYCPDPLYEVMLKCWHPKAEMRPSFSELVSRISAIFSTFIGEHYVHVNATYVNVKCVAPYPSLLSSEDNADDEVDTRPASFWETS

In the case of `Cc1ccc(C(=O)Nc2ccc(Oc3ccnc(NC(=O)C4CC4)c3Cl)c(F)c2)c(=O)n1-c1ccc(F)cc1` [Example 30, N-(4-((3-chloro-2-(cyclopropanecarboxamido)pyridin-4-yl)oxy)-3-fluorophenyl)-1-(4-fluorophenyl)-6-methyl-2-oxo-1,2-dihydropyridine-3-carboxamide], the figures for the half-inhibitory concentration (IC50) against RON and at cMET were 0.025 µM and 0.012 µM, respectively. For the compound `Cc1ccc(C(=O)Nc2ccc(Oc3ncnc(N)c3Cl)c(F)c2)c(=O)n1-c1ccc(F)cc1` [Example 36, N-(4-((6-amino-5-chloropyrimidin-4-yl)oxy)-3-fluorophenyl)-1-(4-fluorophenyl)-6-methyl-2-oxo-1,2-dihydropyridine-3-carboxamide], the IC50 – broadly, the concentration that inhibits the measured activity by half – against RON amounted to 0.007 µM; on cMET, 0.014 µM.

Take `Cc1c(C(=O)Nc2ccc(Oc3ccnc(N)c3Cl)c(F)c2)c(=O)n(-c2ccccc2)n1CC(C)(C)O` [Example 29, N-(4-((2-amino-3-chloropyridin-4-yl)oxy)-3-fluorophenyl)-1-(2-hydroxy-2-methylpropyl)-5-methyl-3-oxo-2-phenyl-2,3-dihydro-1H-pyrazole-4-carboxamide]: the IC50 against RON was 0.082 µM; against cMET, 0.054 µM. In turn, `Cc1ccc(C(=O)Nc2ccc(Oc3cc(Cl)nn4ccnc34)c(F)c2)c(=O)n1-c1ccc(F)cc1` [Example 6, N-(4-((6-chloroimidazo[1,2-b]pyridazin-8-yl)oxy)-3-fluorophenyl)-1-(4-fluorophenyl)-6-methyl-2-oxo-1,2-dihydropyridine-3-carboxamide] came in with an IC50 on cMET of 8.27 µM.

Regarding `Cc1ccc(C(=O)Nc2ccc(Oc3ccnc(N)c3Cl)c(F)c2)c(=O)n1-c1ccc(F)cc1` [Example 25, N-(4-((2-amino-3-chloropyridin-4-yl)oxy)-3-fluorophenyl)-1-(4-fluorophenyl)-6-methyl-2-oxo-1,2-dihydropyridine-3-carboxamide], the IC50 against RON was found to be 0.001 µM; against cMET, 0.002 µM. For the compound `Nc1nccc(Oc2ccc(NC(=O)c3ccc(CO)n(-c4ccc(F)cc4)c3=O)cc2F)c1Cl` [Example 26, N-(4-((2-amino-3-chloropyridin-4-yl)oxy)-3-fluorophenyl)-1-(4-fluorophenyl)-6-(hydroxymethyl)-2-oxo-1,2-dihydropyridine-3-carboxamide], the IC50 against RON and against cMET was 0.003 µM throughout. In turn, `Cc1ccc(C(=O)Nc2ccc(-c3ccnc(-c4ccnc(N)n4)c3)c(F)c2)c(=O)n1-c1ccc(F)cc1` [Example 16, N-(4-(2-(2-aminopyrimidin-4-yl)pyridin-4-yl)-3-fluorophenyl)-1-(4-fluorophenyl)-6-methyl-2-oxo-1,2-dihydropyridine-3-carboxamide] gave an IC50 at cMET of 1.49 µM.

As for `CCOc1ccn(-c2ccc(F)cc2)c(=O)c1C(=O)Nc1ccc(-c2ccc3nc(N)sc3n2)c(C)c1` [Example 1, N-(4-(2-aminothiazolo[5,4-b]pyridin-5-yl)-3-methylphenyl)-4-ethoxy-1-(4-fluorophenyl)-2-oxo-1,2-dihydropyridine-3-carboxamide], the results for the IC50 at RON and on cMET were 5.12 µM and 5.23 µM, respectively. The compound `CCOc1ccn(-c2ccc(F)cc2)c(=O)c1C(=O)Nc1ccc(Nc2ccc3nc(N)sc3n2)c(F)c1` [Example 3, N-(4-((2-aminothiazolo[5,4-b]pyridin-5-yl)amino)-3-fluorophenyl)-4-ethoxy-1-(4-fluorophenyl)-2-oxo-1,2-dihydropyridine-3-carboxamide] gave an IC50 against cMET of 6.72 µM. `Cc1ccc(C(=O)Nc2ccc(NC(=O)c3cc(Br)cnc3N)c(F)c2)c(=O)n1-c1ccc(F)cc1` [Example 32, 2-amino-5-bromo-N-(2-fluoro-4-(1-(4-fluorophenyl)-6-methyl-2-oxo-1,2-dihydropyridine-3-carboxamido)phenyl)nicotinamide] returned an IC50 against cMET of 1.69 µM.

Take `CCOc1ccn(-c2ccc(F)cc2)c(=O)c1C(=O)Nc1ccc(-c2ccc3c(N)n[nH]c3c2)c(F)c1` [Example 18, N-(4-(3-amino-1H-indazol-6-yl)-3-fluorophenyl)-4-ethoxy-1-(4-fluorophenyl)-2-oxo-1,2-dihydropyridine-3-carboxamide]: the half-maximal inhibitory concentration (IC50) against RON turned out to be 0.467 µM; against cMET it was 0.496 µM. As to `Cc1ccc(C(=O)Nc2ccc(NC(=O)c3cc(-c4cnn(C)c4)cnc3N)c(F)c2)c(=O)n1-c1ccc(F)cc1` [Example 34, 2-amino-N-(2-fluoro-4-(1-(4-fluorophenyl)-6-methyl-2-oxo-1,2-dihydropyridin-3-carboxamido)phenyl)-5-(1-methyl-1H-pyrazol-4-yl)nicotinamide], the IC50 was found to be 7.88 µM against RON and 1.56 µM on cMET.

Consider `CCOc1ccn(-c2ccc(F)cc2)c(=O)c1C(=O)Nc1ccc(-c2ccc3snc(N)c3c2)c(F)c1` [Example 21, N-(4-(3-aminobenzo[d]isothiazol-5-yl)-3-fluorophenyl)-4-ethoxy-1-(4-fluorophenyl)-2-oxo-1,2-dihydropyridine-3-carboxamide], for which 6.03 µM corresponded to half-maximal inhibition against cMET (IC50).

`COc1ccn(-c2ccc(F)cc2)c(=O)c1C(=O)Nc1ccc(-c2ccnc(-c3ccnc(N)n3)c2)c(F)c1` [Example 15, N-(4-(2-(2-aminopyrimidin-4-yl)pyridin-4-yl)-3-fluorophenyl)-1-(4-fluorophenyl)-4-methoxy-2-oxo-1,2-dihydropyridine-3-carboxamide] yielded an IC50 at cMET of 4.86 µM. For the compound `Nc1nccc(Oc2ccc(NC(=O)c3cc(C4CC4)cn(-c4ccc(F)cc4)c3=O)cc2F)c1Cl` [Example 27, N-(4-((2-amino-3-chloropyridin-4-yl)oxy)-3-fluorophenyl)-5-cyclopropyl-1-(4-fluorophenyl)-2-oxo-1,2-dihydropyridine-3-carboxamide], the IC50 against RON worked out at 0.002 µM; against cMET, 0.006 µM. The matching figures for `Nc1nccc(Oc2ccc(NC(=O)c3ccc(C(F)(F)F)n(-c4ccc(F)cc4)c3=O)cc2F)c1Cl` [Example 28, N-(4-((2-amino-3-chloropyridin-4-yl)oxy)-3-fluorophenyl)-1-(4-fluorophenyl)-2-oxo-6-(trifluoromethyl)-1,2-dihydropyridine-3-carboxamide]: 0.008 µM and 0.018 µM. Turning to `CCOc1ccn(-c2ccc(F)cc2)c(=O)c1C(=O)Nc1ccc(-c2ccc3[nH]ncc3c2)c(F)c1` [Example 19], half-maximal inhibition on cMET (IC50) required 6.54 µM.

As for `Cc1c(C(=O)Nc2ccc(Oc3ccnc(N)c3Cl)c(F)c2)c(=O)n(-c2ccccc2)n1C` [Example 24, N-(4-((2-amino-3-chloropyridin-4-yl)oxy)-3-fluorophenyl)-1,5-dimethyl-3-oxo-2-phenyl-2,3-dihydro-1H-pyrazole-4-carboxamide], the half-inhibitory concentration (IC50) against RON worked out at 0.044 µM; against cMET, 0.011 µM. Consider `Cc1ccc(C(=O)Nc2ccc(Oc3ccnc(N(C(=O)C4CC4)C(=O)C4CC4)c3Cl)c(F)c2)c(=O)n1-c1ccc(F)cc1` [Example 31, N-(4-((3-chloro-2-(N-(cyclopropanecarbonyl)cyclopropanecarboxamido)pyridin-4-yl)oxy)-3-fluorophenyl)-1-(4-fluorophenyl)-6-methyl-2-oxo-1,2-dihydropyridine-3-carboxamide], for which the IC50 at cMET was found to be 3.55 µM.
